Source: US20140088144A1, “INHIBITING MICROBIAL INFECTIONS” (THE UNIVERSITY OF KANSAS, priority 2012, published 2014)

Key:
icsA = assay: Shigella gene expression qRT-PCR, icsA; assay type: cell-based, S. flexneri; conditions: for Average ΔΔCt / Ct / RQ (2^−ΔΔCt) / ΔΔCt^1 (normalized to gapA) / ΔΔCt^2 (normalized to rrsA): icsA, example data
Protocol: Real-time quantitative reverse transcription PCR (qRT-PCR) was performed to test the effects of SE-1 on the expression of the VirF regulated genes virB, icsA, icsB and ipaB. The gapA and rrsA transcripts were used as internal controls. These are constitutively expressed Shigella genes commonly used to normalize mRNA levels. S. flexneri strain SME4331, which carries a null mutation in ipgD (ipgD), was grown at 30° C. overnight in TSB with ampicillin, diluted into the same medium to an OD600 of ˜0.1, and 1 ml aliquots further grown at 30° C. (DMSO only) or at 37° C. (SE-1 at 20 or 40 μM, or DMSO only, all 0.3% DMSO). Cells were grown to an OD600 of 1.0 (˜2.5 h) and RNA was isolated using an RNeasy MiniElute Cleanup Kit (Qiagen, Germantown, Md.), with DNA contamination eliminated using a Turbo DNase Kit (Ambion, Austin, Tex.). Complementary DNA (cDNA) was synthesized by random priming using a cDNA Reverse Transcription Kit (Applied Biosystems, Foster City, Calif.). Primers were tested for PCR specificity using genomic DNA template to ensure a single amplicon of the expected size for each primer pair, and validated using 5-fold dilutions of cDNA (2000 to 0.0256 ng) to ensure a linear plot of cycle threshold (Ct) versus cDNA concentration. Validated primer sets were used to test mRNA profiles in reactions that contained 10 ng of cDNA, 10 μl of SYBR green master mix (Applied Biosystems), specific primers (0.5 μM each) and water to a final volume of 20 μl, using a Step One Plus Real-Time PCR System (Applied Biosystems). The data was analyzed using the 2^−ΔΔCt method, and also by Applied Biosystems real-time analysis software. […] In brief, ΔΔCt values [ΔΔCt=(Ct,Target−Ct,Internal Control)SE-1−(Ct,Target−Ct,Internal Control)no SE-1] were separately obtained for each sample relative to two internal controls, gapA and rrsA. The ΔΔCt values relative to the two internal controls for each sample were averaged and then used to calculate the relative expression levels (2^−ΔΔCt). As a control, we also normalized each internal control to the other internal control. Control reactions used templates generated without reverse transcriptase to ensure low genomic DNA contamination. To ensure that products were not likely to be due to primer dimer artifacts, additional control samples were performed in which reaction mixtures contained primers alone (no template).

Rns = Rns (Escherichia coli, UniProt P16114); assay: In vivo activation by Rns (promoter-lacZ fusion); assay type: cell-based, Enterotoxigenic E. coli; conditions: compared with full-length RhaS
Sequence of Rns (P16114 whole entry, the tested form may be a part): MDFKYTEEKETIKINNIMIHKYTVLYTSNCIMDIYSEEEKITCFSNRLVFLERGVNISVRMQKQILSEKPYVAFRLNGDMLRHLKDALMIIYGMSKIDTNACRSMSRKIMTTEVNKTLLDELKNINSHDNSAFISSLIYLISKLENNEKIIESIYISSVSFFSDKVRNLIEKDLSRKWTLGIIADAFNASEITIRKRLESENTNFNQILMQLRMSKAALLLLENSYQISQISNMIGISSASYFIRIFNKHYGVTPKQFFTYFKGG
Text: Expression of promoter-lacZ fusions regulated by the indicated activators, or the control Lad regulated fusion at the indicated concentrations of Compound 1. Average of three independent experiments, with two replicates in each experiment.
The compounds of the invention can be used for inhibition of virulence in vivo and in vitro activation by Rns and VirF.

For `CCCCN1C=C(c2ccc3ccccc3n2)C(C[N+](=O)[O-])c2ccccc21` (stereo not shown) [Compound 1, 1-butyl-4-(nitromethyl)-3-quinolin-2-yl-4H-quinoline], the “icsA expression level” value (icsA; 20 μM inhibitor, 37° C.) was “essentially unchanged”, the “icsA expression level” value (icsA; 40 μM inhibitor, P<0.05) was “significantly reduced” and the “Average ΔΔCt” value (icsA; SE-1 20 μM) was 0.04. The Ct (icsA; SE-1 20 μM) was 27.88, the “RQ (2^−ΔΔCt)” value (icsA; SE-1 20 μM) was 0.97 and the “ΔΔCt^1 (normalized to gapA)” value (icsA; SE-1 20 μM) was −0.46. The “ΔΔCt^2 (normalized to rrsA)” value (icsA; SE-1 20 μM) was 0.54, the “Average ΔΔCt” value (icsA; SE-1 40 μM) was 1.17 and the Ct (icsA; SE-1 40 μM) was 28.59. For the same compound, the “RQ (2^−ΔΔCt)” value (icsA; SE-1 40 μM) was 0.44, the “ΔΔCt^1 (normalized to gapA)” value (icsA; SE-1 40 μM) was 0.82 and the “ΔΔCt^2 (normalized to rrsA)” value (icsA; SE-1 40 μM) was 1.52. For the same compound, the “inhibition of in vivo activation by Rns” value (Rns) was “similar, if not greater, extent than full-length RhaS”.
